Measurements taken from US20250249025A1, “DRUG DELIVERY CARRIER UTILIZING PROPERTY OF D-ALLOSE BEING UPTAKEN BY CANCER CELL, DRUG DELIVERY METHOD, AND COMPOSITION FOR TREATING RENAL CELL CARCINOMA” (NATIONAL UNIVERSITY CORPORATION KAGAWA UNIVERSITY, priority 2019, published 2025).

Experiments:
[1] = tested on: human prostate carcinoma cell line LNCa; assay: Rare sugar uptake experiment, sugar content in disrupted cell suspension of LNCa; assay type: cell-based
Protocol: (§1) An uptake amount of a rare sugar, which had been added to a medium, into carcinoma cells was analyzed using the cell lines of three types of cancers. As the rare sugar, four kinds, that is, D-allose, D-allulose (D-psicose), L-allulose (L-psicose), and allitol were used, while D-glucose and fructose were used as a monosaccharide which was not a rare sugar.
(§2) Cells of each of the cell lines were cultured in RPMI-1640 media and during culturing, six sugars were each added to the resulting media and cultured. After culturing, an amount of each sugar taken up into the cells was analyzed. The medium to which no sugar was added during culturing was used as a control.
(§3) Used were human bladder carcinoma cell lines (RT112, 253), and J82), human prostatic carcinoma cell lines (LNCa, Du145, and PC-3), and human renal cell carcinoma cell lines (ACHN, Caki-I, and Caki-II).
(§4) After cells were cultured in RPMI-1640 (2000 mg D-glucose/L) media, the above monosaccharides and rare sugars were added to the resulting media, respectively. Described specifically, they were following seven combinations: RPMI-1640 alone (control), RPMI-1640+D-glucose, RPMI-1640+L-allulose, RPMI-1640+D-allulose, RPMI-1640+D-fructose, RPMI-1640+D-allose, and RPMI-1640+D-allitol. The final concentration of the sugar in the medium was adjusted to 10 mM and no sugar was added in the control.
(§5) Five-ml portions of a 3.0×10^4 cells/ml cell suspension prepared using RPMI-1640 were seeded in dishes having a diameter of 6 cm (1.5×10^5 cells/dish) and cultured for 24 hours in the RPMI-1640 medium containing 2000 mg/l of D-glucose as a nutrient source. Twenty-four hours later, the media were changed to the culture solutions containing the monosaccharides and rare sugars described above in 2), respectively, followed by culturing for 48 hours.
(§6) After culturing for 48 hours, the attached human carcinoma cells were mechanically separated and collected in a Spitz tube together with the culture solution and floating cells. After the supernatant formed by centrifugation (4° C., 1200 rpm, and 5 minutes) was removed to obtain cell pellets alone, 5 ml of a phosphate buffer physiological saline (PBS) was added for the purpose of washing to obtain a cell suspension of the cell pellets. A gain, the resulting cell suspension was centrifuged at 4° C. and 1200 rpm for 5 minutes and the supernatant was removed. To the cell pellets after washing was added 1 ml of pure water to suspend them therein. Ultrasonic disruption (intensity: 40%, 30 seconds) was then performed and the monosaccharide in the disrupted cell suspension was labeled with ABEE, followed by analysis by HPLC. From the area thus obtained, the sugar content in the cells was determined using a calibration curve. With respect to the ketose, two peaks were found after labeling with ABEE so that the sugar content in the cells was determined from the calibration curves of both peaks.

[2] = tested on: human renal cell carcinoma cell line Caki-I; assay: Rare sugar uptake experiment, sugar content in disrupted cell suspension of Caki-I; assay type: cell-based
Protocol: as §1, §2, §3, §4, §5, §6

Caki-I tumor = assay: D-allose concentration in tumor after intraperitoneal injection, Caki-I xenograft mouse model; assay type: in vivo; conditions: Caki-I xenograft mice, 400 mg/kg intraperitoneal
Protocol: (§7) The experiment of the present example used two human renal cell carcinoma cell lines (Caki-I and ACHN). Each cell was cultured under the wet environment of 37° C. and 5% CO2 by using a RPMI-1640 culture solution (2000 mg D-glucose/L) containing a 10% fetal calf serum, a HEPES buffer, and penicillin-streptomycin.
(§8) With respect to a renal cell carcinoma xenograft mouse model, a 1.0×10^5 cells/ml of a cell suspension was obtained by adjusting the cultured cells with a MEM culture solution and then 0.1 ml of the resulting suspension was injected into the femoral subcutaneous tissue of Female athymic nude mice (BALB/c-nu/nu, 6-week-old). After checking that the tumor volume was 200 mm^3 or more one week after the injection, the mice were provided for the experiment thereafter.
A 400 mg/kg/0.4 mL solution of rare sugar D-allose was prepared using physiological saline and was intraperitoneally injected into the xenograft mouse models of two human renal cell carcinoma cell lines (Caki-I and ACHN) through a 27 G needle. A tumor was enucleated from the mouse before […] administration and 1 hour, 2 hours, and 4 hours after the administration. […] A monosaccharide in the supernatant thus obtained was labeled with ABEE (4-aminobenzoic acid ethyl ester) and the quantitative analysis of D-allose was performed by HPLC (high performance liquid chromatography). […]

[3] = tested on: xenograft mouse model made using Caki-I; assay: Change of tumor volume by intraperitoneal D-allose injection, Caki-I xenograft mouse model; assay type: in vivo, mice
Protocol: as §7, §8
(§9) The day when the tumor size of the renal cell carcinoma xenograft mouse models became 200 mm^3 or more was called day 0 and the intraperitoneal injection of a D-allose-containing solution was started from day 1. The solution injected is 0.4 mL of physiological saline or a solution obtained by dissolving 100 mg/kg or 400 mg/kg of D-allose in 0.4 mL physiological saline. The resulting solution was intraperitoneally injected into three groups of mice (Control, 100 mg/kg of D-allose, and 400 mg/kg of D-allose) once a day for 5 weeks in total. The body weight of the mice and the long and short diameters of the tumor were measured over time twice a week. It is to be noted that the tumor volume was obtained as a product of long diameter×short diameter×short diameter of the tumor×0.5. On day 35 after the intraperitoneal injection was started, the tumor as well as the liver and kidney were excised from the mice and provided for the experiment performed thereafter.

[4] = tested on: xenograft mouse model made using ACHN; assay: Change of tumor volume by intraperitoneal D-allose injection, ACHN xenograft mouse model; assay type: in vivo, mice; conditions: 400 mg/kg intraperitoneal once a day, on and after day 13, Mann-Whitney U test
Protocol: as §7, §8
The day when the tumor size of the renal cell carcinoma xenograft mouse models became 200 mm^3 or more was called day 0 and the intraperitoneal injection of a D-allose-containing solution was started from day 1. The solution injected is 0.4 mL of physiological saline or a solution obtained by dissolving 100 mg/kg or 400 mg/kg of D-allose in 0.4 mL physiological saline. […] The body weight of the mice and the long and short diameters of the tumor were measured over time twice a week. […]

kidney tissue = assay: Kidney tissue histology in renal cell carcinoma xenograft mouse models; assay type: in vivo; conditions: xenograft mice, intraperitoneal once a day, day 35; diagnosis by a medical specialist in pathology; FIG. 7
Protocol: as §9, with “On day 35 after the intraperitoneal injection was started, the tumor as well as the liver and kidney were excised from the mice and provided for the experiment performed thereafter.” left out
The tissue of the excised tumor, kidney, and liver was fixed with a 4% paraformaldehyde phosphate buffer, embedded with paraffin, and sliced into a 4-μm thick section. The resulting sliced section was stained with hematoxylin and eosin and evaluated by a medical specialist in pathology. The influence of D-allose on the tumor tissue was evaluated by a necrosis area (%) and an image of the number of nuclear fissions (Cells/HPF). It is to be noted that the necrosis area was measured using an image recording software Nikon NIS—Elements D and figures after the decimal point were omitted. […]

O=C[C@H](O)[C@H](O)[C@H](O)[C@H](O)CO [D-allose]
D-glucose content in cell ([1]; LNCa, named sugar added to RPMI-1640 at 10 mM, 48 hours, HPLC after ABEE labeling): 11.2 µg
Content in cell of the added sugar ([1]; human, 48 h, 10 mM): 0.0 µg
D-glucose content in cell ([2]; Caki-I, named sugar added to RPMI-1640 at 10 mM, 48 hours, HPLC after ABEE labeling): 2.1 µg
Content in cell of the added sugar ([2]; human, 48 h, 10 mM): 13.2 µg
D-allose in tumor one hour after intraperitoneal injection (Caki-I tumor; HPLC, FIG. 4): detected
Time after injection at which D-allose concentration in tumor became the highest (Caki-I tumor; sampled 1, 2, 4 hours): one
Tumor volume versus Control group ([3]; 100 mg/kg intraperitoneal once a day, on and after day 31, Mann-Whitney U test): significantly smaller than that of the Control group
Tumor volume versus tumor volume before administration ([3]; 400 mg/kg intraperitoneal once a day, on and after day 16): significantly smaller than the tumor volume before administration
Tumor volume versus Control group ([3]; 400 mg/kg intraperitoneal once a day, on and after day 16, Mann-Whitney U test): significantly smaller than that of the Control group
Tumor volume versus Control group [4]: significantly smaller than the Control group
Influence on the kidney tissue (kidney tissue): No influence
